Laboratory results taken from US20220227761A1, “OXOACRIDINYL ACETIC ACID DERIVATIVES AND METHODS OF USE” (STINGTHERA, INC., priority 2019, published 2022).
Where “and” joins values, the source holds several entries; their conditions need not be identical. Equal values may be shown once.

Experiments:
[1] = molecular target: human STING protein (140-379), WT (Homo sapiens, UniProt Q86WV6, H232R); assay: Radiometric filtration binding competition assay (FBA), hSTING-WT; details: WT-hSWAT IC50 (μM), WT_FBA_HIS-SUMO-hSWAT; wild-type human STING; competition with [H3] 2′3′cGAMP
Sequence of human STING protein (140-379), WT (Q86WV6 140-379 H232R): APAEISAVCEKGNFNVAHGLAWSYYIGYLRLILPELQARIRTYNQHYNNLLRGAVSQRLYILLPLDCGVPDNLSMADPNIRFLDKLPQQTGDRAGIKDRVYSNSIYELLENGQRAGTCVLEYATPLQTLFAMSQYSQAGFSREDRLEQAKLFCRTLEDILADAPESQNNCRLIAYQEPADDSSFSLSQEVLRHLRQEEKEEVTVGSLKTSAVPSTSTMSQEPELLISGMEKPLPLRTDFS

hSTING-R232 (aa140-379) = hSTING-R232 (aa140-379) (Homo sapiens, UniProt Q86WV6, H232R); assay: STING differential scanning fluorimetry (DSF) assay, hSTING WT; details: shift in melting temperature apo vs ligand-bound
Sequence of hSTING-R232 (aa140-379) (Q86WV6 140-379 H232R): as above
Procedure: A STING DSF assay was performed to determine protein thermostability shift in response to small molecule ligand binding. A STING thermnostability shift assay based on differential scanning fluorimetry was used to measure (1) the net shift in melting temperature (ΔTm) between the apo and ligand-bound states of the STING protein and (2) the concentration of the thermal denaturation transition (EC50) as a surrogate measure of binding affinity (Kd). […] Protein in assay buffer was transferred to a 384 well plate and incubated with the hydrophobic fluorescent dye SYBR Orange. A temperature ramp was applied to the plate and the resulting dye fluorescence was plotted as a function of temperature. The first derivative of this function (dF/dT) was then used to extrapolate the melting temperature of the protein at various concentrations of compound and determine the thermal denaturation profile of a protein/compound complex.
5 μM purified Target STING Protein • 3. 8 μM Sypro Orange Dye • 4. Buffer: 100 mM NaCl, 30 mM HEPES, pH 7.5 • 5. Thermal Ramp: 0.5° C./min • 6. <1% DMSO • 7. 11 point, 2 fold dilution, duplicate, 300 μM high concentrations • 8.

[2] = test system: STING protein; IRF/IFN signaling in THP-1 R232 cells; assay: Cell based reporter assay, THP-1 R232 IRF-luc; details: Homo sapiens, THP1-dual-KI R232 cells, IRF luciferase reporter; for Emax: maximum measured activity, read-out: THP 1-dual-KI R232_IRF(Luciferase)_Activity Maximum measured (%); for IC50: read-out: THP 1-dual-KI R232_IRF(Luciferase) IC50
From the text: Cell reporter assays were developed to measure the ability of compounds of the application to activate the STING protein and activate both IRF/IFN and the NFkB signaling pathways in the myeloid derived cell line THP-1, which is commercially available from several suppliers. Briefly, THP-1 monocytes were transfected and selected for stable integration of 2 reporter constructs. Clones incorporating stably integrated vectors were further selected by antibiotic resistance to blastocidin and zeocin. The reporter constructs included: (1) firefly luciferase reporter gene under the control of an ISG54 promoter fused to five interferon (IFN)-stimulated response elements to measure IRF transcription factor binding activity and (2) secreted embryonic alkaline phosphatase reporter gene under transcription control of an IFN-beta minimal promoter fused to 5 copies of the NFkB consensus transcriptional response element and 3 copies of the c-Rel binding site.
The resulting THP-1 cell line was further modified to incorporate 3 amino acid point mutations (H71R A230G Q293R). This modification of the native TMEM173 gene in THP-1 cells (HAQ) was designed to produce a cell reporter that expressed the most common allelic variant in the human population (THP-1 R232, available from InvivoGen). Alternatively, the TMEM173 gene was knocked out to provide a congenic control to counter-screen for compound activation that was independent of the STING protein (THP-1 STING KO).
Once cell lines were established, reporter assay protocols were developed and optimized to screen small molecule compounds for agonist activity. Assay optimization for efficacy and Z′ value included titration of the following parameters:
• 1. Cell pre-activation with PMA • 2. Cell seeding density • 3. DMSO tolerance • 4. Media selection • 5. FBS concentration • 6. Incubation time • 7. Co-Assessment of cell viability by CTG assay • 8. Appropriate HPE and ZPE controls • 9. Dose Response Titration
• 1. No pre-activation with PMA • 2. 5×10^4 cells/well in 96 well plate format • 3. <0.5% DMSO • 4. RPMI 1640+2.5 mg/ml glucose • 5. 10% FBS • 6. 14-18 hr incubation • 7. Cell Titer Glo reagent (Promega) following supernatant removal • 8. […] 8 point, 2 fold, duplicate starting at 150 μM

Structure (SMILES)	IC50 [1]	WT_DSF_hSWAT Tm Shift (° C.) (hSTING-R232 (aa140-379))	Emax [2]	IC50 [2]
C=C(C)c1ccc2c(=O)c3ccc(Cl)c(N(C)C)c3n(CC(=O)O)c2c1 [Compound 24]	< 20 µM	D (“D” >7° C.)	> 50%	< 50 µM
CN(C)c1c(Cl)ccc2c(=O)c3ccc(C4=CCN(C(=O)OC(C)(C)C)C4)cc3n(CC(=O)O)c12 [Compound 25]	< 20 µM	D (“D” >7° C.)	> 50%	< 50 µM
CN(C)c1c(Cl)ccc2c(=O)c3cc(Br)ccc3n(CC(=O)O)c12 [Compound 29]	> 300 µM	B (“B” = 0-2° C.)	> 50%	< 50 µM
CN(C)c1c(Cl)ccc2c(=O)c3cc(-c4ccccc4)ccc3n(CC(=O)O)c12 [Compound 30]	< 20 µM	D (“D” >7° C.)	25 to 50%	< 50 µM
Cc1ccc2c(c1)c(=O)c1ccc(Cl)c(N(C)C)c1n2CC(=O)O [Compound 31]	100 to 300 µM and 20 to 100 µM	C (“C” = 2-7° C.)	> 50%	50 to 100 µM
Cc1cc2c(cc1Br)c(=O)c1ccc(Cl)c(N(C)C)c1n2CC(=O)O [Compound 34]	20 to 100 µM	C (“C” = 2-7° C.)	5 to 25%	< 50 µM
CN(C)c1c(Cl)ccc2c(=O)c3ccc(C4CCC4)cc3n(CC(=O)O)c12 [Compound 35]	< 20 µM	D (“D” >7° C.)	> 50%	< 50 µM
CN(C)c1c(Cl)ccc2c(=O)c3ccc(C4CC4)cc3n(CC(=O)O)c12 [Compound 36]	< 20 µM	D (“D” >7° C.)	> 50%	< 50 µM
CCc1ccc2c(=O)c3ccc(Cl)c(N(C)C)c3n(CC(=O)O)c2c1 [Compound 37]	< 20 µM	D (“D” >7° C.)	> 50%	< 50 µM
Cc1ccc2c(=O)c3ccc(C(C)(C)C)cc3n(CC(=O)O)c2c1N(C)C [Compound 39]	< 20 µM	D (“D” >7° C.)	> 50%	< 50 µM
Cc1ccc2c(=O)c3ccc(Cl)c(C(C)C)c3n(CC(=O)O)c2c1 [Compound 46]	> 300 µM	D (“D” >7° C.)	5 to 25%	> 150 µM
C=C(C)c1c(Cl)ccc2c(=O)c3ccc(C)cc3n(CC(=O)O)c12 [Compound 47]	< 20 µM	D (“D” >7° C.)	> 50%	< 50 µM
Cc1ccc2c(=O)c3c(O)cc(Cl)c(N(C)C)c3n(CC(=O)O)c2c1 [Compound 51]	20 to 100 µM	D (“D” >7° C.)	> 50%	100 to 150 µM
CN(C)c1c(Cl)ccc2c(=O)c3ccc(C(C)(C)C#N)cc3n(CC(=O)O)c12 [Compound 52]	< 20 µM	D (“D” >7° C.)	> 50%	< 50 µM
COc1c(Cl)ccc2c(=O)c3ccc(C4CCN(C)CC4)cc3n(CC(=O)O)c12 [Compound 53]	100 to 300 µM	C (“C” = 2-7° C.)	5 to 25%	> 150 µM
COc1c(Cl)ccc2c(=O)c3ccc(C4=CCN(C)CC4)cc3n(CC(=O)O)c12 [Compound 54]	> 300 µM	C (“C” = 2-7° C.)	5 to 25%	> 150 µM
Cc1ccc2c(=O)c3ccc(Cl)c(N(C)C)c3n(CC(=O)NS(C)(=O)=O)c2c1 [Compound 55]	20 to 100 µM	D (“D” >7° C.)	> 50%	< 50 µM
CN(C)c1c(Cl)ccc2c(=O)c3ccc(-c4ccco4)cc3n(CC(=O)NS(C)(=O)=O)c12 [Compound 56]	< 20 µM	D (“D” >7° C.)	–	> 150 µM
CC(C)c1ccc2c(=O)c3ccc(Cl)c(N(C)C)c3n(CC(=O)O)c2c1 [Compound 58]	< 20 µM	D (“D” >7° C.)	> 50%	< 50 µM

Structure (SMILES)	IC50 [1]	WT_DSF_hSWAT Tm Shift (° C.) (hSTING-R232 (aa140-379))	Emax [2]	IC50 [2]
COCCOc1cccc2c(=O)c3ccc(Cl)c(OC)c3n(CC(=O)O)c12 [Compound 60]	> 300 µM	B (“B” = 0-2° C.)	5 to 25%	> 150 µM
COc1c(Cl)ccc2c(=O)c3cccc(OCCO)c3n(CC(=O)O)c12 [Compound 61]	> 300 µM	B (“B” = 0-2° C.)	5 to 25%	> 150 µM
O=C(O)Cn1c2ccccc2c(=O)c2ccc(Cl)c(O)c21 [Compound 63]	20 to 100 µM	B (“B” = 0-2° C.)	< 5%	> 150 µM
C=C(C)c1ccc2c(=O)c3ccc(Cl)c(OC)c3n(CC(=O)O)c2c1 [Compound 65]	20 to 100 µM	D (“D” >7° C.)	> 50%	< 50 µM
COc1c(Cl)ccc2c(=O)c3ccc(F)cc3n(CC(=O)O)c12 [Compound 67]	> 300 µM	C (“C” = 2-7° C.)	–	> 150 µM
CCNc1ccc2c(=O)c3ccc(Cl)c(OC)c3n(CC(=O)O)c2c1 [Compound 68]	20 to 100 µM	C (“C” = 2-7° C.)	> 50%	50 to 100 µM
CN(C)c1c(Cl)ccc2c(=O)c3ccc(-c4cc[nH]c(=O)c4)cc3n(CC(=O)O)c12 [Compound 69]	< 20 µM	D (“D” >7° C.)	> 50%	< 50 µM
CN(C)c1c(Cl)ccc2c(=O)c3ccc(-c4cnccn4)cc3n(CC(=O)O)c12 [Compound 70]	< 20 µM	C (“C” = 2-7° C.)	> 50%	< 50 µM
CN(C)c1c(Cl)ccc2c(=O)c3ccc(-c4ccnnc4)cc3n(CC(=O)O)c12 [Compound 71]	20 to 100 µM	D (“D” >7° C.)	> 50%	< 50 µM
CN(C)c1c(Cl)ccc2c(=O)c3cc(Cl)c(Nc4c(F)cccc4F)cc3n(CC(=O)O)c12 [Compound 75]	< 20 µM	D (“D” >7° C.)	> 50%	< 50 µM
CN(C)c1c(Cl)ccc2c1N(CC(=O)O)c1cc(Nc3ccccc3F)ccc1N2C [Compound 78]	< 20 µM	D (“D” >7° C.)	> 50%	< 50 µM
CN(C)c1c(Cl)ccc2c(=O)c3ccc(Nc4cccnc4)cc3n(CC(=O)O)c12 [Compound 80]	< 20 µM	D (“D” >7° C.)	> 50%	< 50 µM
CN(C)c1c(Cl)ccc2c(=O)c3ccc(Nc4ccncc4)cc3n(CC(=O)O)c12 [Compound 81]	< 20 µM	D (“D” >7° C.)	> 50%	< 50 µM
CN(C)c1c(Cl)ccc2c(=O)c3ccc(C4(C#N)CC4)cc3n(CC(=O)O)c12 [Compound 84]	20 to 100 µM	D (“D” >7° C.)	> 50%	< 50 µM
CC(C)Nc1cc2c(cc1Cl)c(=O)c1ccc(Cl)c(N(C)C)c1n2CC(=O)O [Compound 86]	< 20 µM	D (“D” >7° C.)	> 50%	< 50 µM
CN(C)c1c(Cl)ccc2c(=O)c3cc(Cl)c(C(C)(C)C#N)cc3n(CC(=O)O)c12 [Compound 87]	< 20 µM	D (“D” >7° C.)	> 50%	< 50 µM
CN(C)c1c(Cl)ccc2c(=O)c3cc(Cl)c(C(C)(C)C)cc3n(CC(=O)O)c12 [Compound 88]	< 20 µM	D (“D” >7° C.)	> 50%	< 50 µM
C=Cc1cc2c(cc1Cl)c(=O)c1ccc(Cl)c(N(C)C)c1n2CC(=O)O [Compound 89]	< 20 µM	D (“D” >7° C.)	> 50%	< 50 µM
